The values below come from US5578596A, “2-alkoxy-5,6,7,8-tetrahydroquinoxaline derivatives, and production method and use thereof” (Asahi Kasei Kogyo Kabushiki Kaisha, priority 1992, dated 1996).

As a reminder, the Ki is the dissociation constant of the complex between target and ligand, obtained from inhibition or displacement. A high value points to a looser hold on the target.

Assay [1] has as its system immobile state of rat in forced swimming test. As to the kind of experiment: Anti-depression activity evaluated by forced swimming test using rats. It is filed as in vivo, male Wistar strain rats. The conditions noted are these: hydrochloride; for Time spent in immobile state: 30 min before test, observed 6 min, 6 rats, saline control 236 sec. As to the method:
4. Anti-depression activity (which was evaluated by forced swimming test using rats)
When a rat is put in a water tank, the rat struggles for its life to get out of the water (that is, the rat starts a "forced swimming"). If the rat finds that it is impossible for him to get out, the rat stops swimming and assumes an immobile state. It has been known that the administration of an antidepressant can cause a violent swimming motion in the rat for getting out of the water, with a result that the time spent in the immobile state is shortened. The shortening of the time in the immobile state of the rat in the forced swimming test by the administration of the antidepressant is well correlated to the clinical anti-depression effect. Accordingly, in developing antidepressants, the forced swimming test using a rat is the most reliable screening method. In the present test, male Wistar strain rats were used. Compound 300 of the present invention (in the form of the hydrochloride thereof) was intraperitoneally administered to a rat. 30 minutes after the administration, the rat was put in a water tank and then, observed for 6 minutes. The time for the rat to keep the immobile state was measured.

Assay [2] concerns the target T1, serotonin 1A (5HT1A) receptor (Rattus norvegicus, UniProt P19327).
T1 construct: The resultant precipitate was used as a rat hippocampal membrane fraction in the following procedures; from tissue; host or cells: hippocampal membrane fraction of male SD rat (7 weeks old; animals from Charles River)
T1 sequence (P19327 1-422): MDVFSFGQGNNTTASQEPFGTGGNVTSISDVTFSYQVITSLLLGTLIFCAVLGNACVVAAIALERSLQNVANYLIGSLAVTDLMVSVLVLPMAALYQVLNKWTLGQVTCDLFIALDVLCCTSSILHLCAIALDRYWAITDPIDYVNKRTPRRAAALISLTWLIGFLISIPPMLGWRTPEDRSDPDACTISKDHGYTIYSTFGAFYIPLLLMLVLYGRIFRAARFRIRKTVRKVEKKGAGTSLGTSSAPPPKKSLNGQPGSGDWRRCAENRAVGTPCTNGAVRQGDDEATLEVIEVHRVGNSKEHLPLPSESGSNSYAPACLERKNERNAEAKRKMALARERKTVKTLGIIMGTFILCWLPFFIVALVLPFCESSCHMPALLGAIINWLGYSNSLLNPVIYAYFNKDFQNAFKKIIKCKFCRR
Description: Affinity for serotonin 1A (5HT1A) receptor: inhibition of 3H-8-OH-DPAT binding to rat hippocampal membrane fraction. The conditions noted are these: test compound as hydrochloride. As to the method:
1. Affinity for serotonin 1A (5HT1A) receptor
(A) Preparation of rat hippocampal membrane fraction
A male SD strain rat (7-week old; Charles River) was decapitated, and brain was taken out therefrom quickly. 50 mM Tris-HCl buffer (pH 7.4) was added to the brain under ice cooling to obtain a suspension. The resultant suspension was homogenized, and then subjected to centrifugation at 48000 g for 15 minutes, to thereby obtain a precipitate. The precipitate was resuspended in the same Tris-HCl buffer as used above. The resultant suspension was incubated at 30° C. for 20 minutes to decompose endogenous serotonin of the rat hippocampal membrane, followed by centrifugation at 48000 g for 15 minutes to thereby obtain a precipitate. The resultant precipitate was used as a rat hippocampal membrane fraction in the following procedures.
(B) Method for the evaluation of the binding ability of ^3 H-8-hydroxy-dipropylaminotetralin (^3 H-8-OH-DPAT) to serotonin 1A receptor
The rat hippocampal membrane fraction prepared in step (A) above (about 100 to 200 μg in terms of proteins) was reacted with 0.5 nM (final concentration) ^3 H-8-OH-DPAT (which is commercially available from DuPont-NEN Research Products) and 10 μM (final concentration) pargyline (which is commercially available from Sigma Chemical Company) at 30° C. for 30 minutes to effect a reaction. The resultant reaction mixture was subjected to suction filtration using a Whatman GF/C filter, to thereby terminate the reaction. The radio-activity of ^3 H-8-OH-DPAT adsorbed on the filter was determined using a liquid scintillation counter. The obtained value is regarded as a total amount (TB) of specifically binding ^3 H-8-OH-DPAT and non-specifically binding ^3 H-8-OH-DPAT.
On the other hand, substantially the same procedure as mentioned above was repeated, except that 10 μM (final concentration) serotonin was added to the ^3 H-8-OH-DPAT and pargyline. The radioactivity of ^3 H-8-OH-DPAT adsorbed on the filter was determined in the same manner as mentioned above. The obtained value is regarded as the amount (NB) of non-specifically binding ^3 H-8-OH-DPAT.
Further, substantially the same procedure as mentioned above was repeated, except that, instead of serotonin, a test compound was used in a predetermined concentration. The radioactivity of ^3 H-8-OH-DPAT adsorbed on the filter was determined in the same manner as mentioned above. The obtained value is regarded as the amount (DTB) of binding ^3 H-8-OH-DPAT.
(C) Calculation of Ki value
The inhibition ratio of the test compound (at a certain concentration) against the binding of 3H-8-OH-DPAT (the inhibition ratio is hereinafter referred to simply as "binding inhibition ratio") was calculated according to the following formula:
Binding inhibition ratio (%)=100-(DTB-NB).div.(TB-NB)×100
With respect to each of the test compounds, the binding inhibition ratios at various concentrations (from a higher concentration to a lower concentration) were determined. The binding inhibition ratios were plotted, taking the logarithmic value of the concentration of test compound as the abscissa value, and the binding inhibition ratio as the ordinate value. Then, a curve was drawn by non-linear least square method.
The Ki value was determined according to the following formula:
[L] is the concentration (0.2 nM) of a radioactive ligand (^3 H-8-OH-DPAT) used in the test;

Assay [3] relates to Suncus murinus (motion sickness emesis). Description: Activities against motion sickness: acceleration-stimulus induced emesis in suncus. It is filed as in vivo. The conditions noted are these: 30 min before acceleration-stimulus (4 cm, 1 Hz), observed 10 min, hydrochloride, 4 suncus. The source says:
The activities of individual compounds against motion sickness were examined using Suncus murinus. Suncus murinus is a small animal belonging to the Soricidae family. It has been known that suncus is likely to suffer from motion sickness and is susceptible to occurrence of emesis [see "Seitai-no-kagaku (Science of living body)", 41, 538 (1990)]. Suncus is likely to show symptoms like the symptoms of human motion sickness under the stimulus of simple acceleration, finally leading to the occurrence of emesis. It has been recognized that motion sickness is caused by the occurrence of disorder in information, such as vision, equilibrium sense and the like, or by a stimulus which has never been memorized. Further, it has been recognized that the disorder in the inner earvestibular nucleus pathway and the high-order function of brain take part in the occurrence of motion sickness. Therefore, medicines capable of suppressing the occurrence of emesis of suncus would be useful for preventing and treating motion sickness, space sickness, emesis, dizziness and the like.
In this test, test compounds were individually administered intraperitoneally to suncus.
The time for occurrence of emesis was measured with respect to each of the test compounds, and the results are shown in Table 3.

The subject of another assay is cisplatin-induced emesis. Description: Suppression of cisplatin-induced emesis in suncus. The conditions noted are these: hydrochloride 0.3 mg/kg intraperitoneal, 30 min before cisplatin 20 mg/kg i.p. It is filed as in vivo. As to the method: (§1) It has been known that cisplatin and nicotine have an emesis-inducing activity. In this test, it was investigated as to whether the hydrochloride of compound (1) of the present invention has the activity to suppress the occurrence of emeses which are induced by these drugs.
Cisplatin was intraperitoneally administered to each of four suncuses (20 mg/kg). As a result, with respect to all of the suncuses, emesis occurred 10 to 20 times within 40 to 70 minutes after the administration of the cisplatin.

The next assay deals with nicotine-induced emesis. As to the kind of experiment: Suppression of nicotine-induced emesis in suncus. It is filed as in vivo. Particulars: hydrochloride 3 mg/kg intraperitoneal, 30 min before nicotine 4 mg/kg s.c. As to the method: as §1
On the other hand, nicotine was subcutaneously administered to four suncuses (4 mg/kg). As a result, with respect to all of the suncuses, emesis was induced 11 to 29 times within 3 to 10 minutes after the administration of the nicotine.

For assay [4] the following is noted: known, background; cited from earlier work.

For `c1ccc(N2CCN(CCCCOc3cnc4c(n3)CCCC4)CC2)nc1` [Compound 300, 2-[4-{4-(2-Pyridyl)-1-piperazinyl}butoxy]-5,6,7,8-tetrahydroquinoxaline], the “time for the rat to keep the immobile state (in words)” value in assay [1] (1 mg/kg and 10 mg/kg) is “remarkably shortened”. In addition, the “Time spent in immobile state” value is 173 s in assay [1] (1 mg/kg intraperitoneal) and 163 s in assay [1] (10 mg/kg intraperitoneal). The affinity in assay [2], expressed as Ki, was 1.6 nM. The “Time for occurrence of emesis” value in assay [3] (1 mg/kg intraperitoneal) is on record as “Emesis did not occur”. Further, the “occurrence of cisplatin-induced emesis” value in the assay on cisplatin-induced emesis is reported as “completely suppressed”. For the same molecule, the “occurrence of nicotine-induced emesis” value in the assay with nicotine-induced emesis is listed as “completely suppressed”.

In turn, `c1cnc(N2CCN(CCCCOc3cnc4c(n3)CCCC4)CC2)nc1` [Compound 301, 2-[4-{4-(2-Pyrimidinyl)-1-piperazinyl}butoxy]-5,6,7,8-tetrahydroquinoxaline] yielded a Ki in assay [2] of 6 nM. Moreover, the “Time for occurrence of emesis” value in assay [3] (3 mg/kg intraperitoneal) is “Emesis did not occur”.

For the molecule `Cc1nccn1CC1CCc2c(c3ccccc3n2C)C1=O` (stereo not drawn) [ondansetron], in assay [4], the “effect on emesis induced by drugs other than cisplatin” value was “no effect”, the “effect on motion sickness” value was “no effect” and the “suppression of cisplatin-induced emesis” value is reported as “effective for suppressing cisplatin-induced emesis”.
